Reference: publication PMC5032167, “A conjugate of methotrexate and an analog of luteinizing hormone releasing hormone shows increased efficacy against prostate cancer” (Scientific Reports, 2016)
Marks after values point to notes of the source that are not given here.

Legend:
[1] = test system: normal human prostate fibroblast (HPrF) cells; experiment: cells
Procedure: (§4) To determine the selectivity of LHRH-MTX, we performed a MTT experiment with normal human prostate fibroblast (HPrF) cells.
(§5) HPrF cells were exposed to MTX or [DLys^6]-LHRH-MTX at 0.015-1000 μmol/L. Growth inhibition was determined by MTT assay.
(§6) PC-3 cells and HPrF cells were maintained in T-media (Gibco Invitrogen, CA) supplemented with 10% fetal bovine serum (FBS) (Gibco Invitrogen, CA) and 1% penicillin/streptomycin (Cellgro Mediatech, nc., VA). […]
(§7) The cytotoxic effect of MTX, [Dlys^6]-LHRH, and [Dlys^6]-LHRH-MTX was evaluated using the methylthiazol tetrazolium (MTT) assay (Sigma Aldrich, MO), which determines the number of viable cells from the formazan crystals produced by metabolic activity[26][33][34]. […] The absorption at 570 nm was recorded with an ELISA plate reader (Bio-Rad, Microplate Reader 550 and the growth inhibitory (GI) rate was calculated according to the following equation: GI(%) = 100 − [T − B)/(C − B) × 100].

LNCaP cells = experiment: MTT cytotoxicity assay, LNCaP cells; assay type: cell-based; conditions: Homo sapiens, 24 h treatment, means ± SD, n = 3
Procedure: (§1) The LNCaP cells were grown in RPMI 1640 medium(Gibco Invitrogen, CA) containing 10% FBS and 1% penicillin/streptomycin and the DU145 cells were grown in Eagle’s minimum essential medium (MEM) (Gibco Invitrogen, CA) with 2 mM L-glutamine and Earle’s BSS, 1.5 g/L sodium bicarbonate, 0.1mM non-essential amino acids, 1 mM sodium pyruvate, 10% FBS and 1% penicillin/streptomycin.
(§2) The cytotoxic effect of MTX, [Dlys^6]-LHRH, and [Dlys^6]-LHRH-MTX was evaluated using the methylthiazol tetrazolium (MTT) assay (Sigma Aldrich, MO), which determines the number of viable cells from the formazan crystals produced by metabolic activity.
(§3) In the equation, T represents the absorption value of the treatment group; C is the absorption value of the control (untreated) group; and B refers to the absorption value of the culture medium. IC50 values (μg/mL) were calculated with SPSS software. In a competition assay, Prostate cancer cells (5,000 per well) were separately incubated in 96-well plates in triplicate with [DLys^6]-LHRH–MTX alone and [DLys^6]-LHRH free peptide and [DLys^6]-LHRH–MTX together, and the cells were incubated for 24 hr. The plates were then analyzed with the MTT method.

PC-3 tumor xenografts = experiment: In vivo anti-tumor activity, PC-3 tumor xenografts; set-up: species or system athymic BALB/c nude mice; conditions: for effect on tumor volume / Mean tumor weight / Mean tumor volume, Final: end of study; for Inhibition ratio of tumor weight / Inhibition ratio of tumor volume: against saline; for Inhibition ratio of tumor weight / Inhibition ratio of tumor volume / Mean tumor volume, Initial / Mean tumor weight / Mean tumor volume, Final / Tumor volume doubling time: n = 10; for Inhibition ratio of tumor volume / Tumor volume doubling time: i.v. twice weekly for 4 weeks; for Mean tumor volume, Initial: baseline, nude mice with PC-3 xenografts; for Mean tumor volume, Initial / Mean tumor weight / Mean tumor volume, Final: means ± SD; for Mean tumor volume, Final: i.v. tail vein twice weekly for 4 weeks; for Tumor volume doubling time: saline control 6.13 days
Procedure: Four week-old male athymic BALB/c nude mice were obtained from Sino-British SIPPR/BK Laboratory Animal Ltd (Shanghai, China). The animals were housed in sterile cages under laminar flow hoods in a temperature-controlled room with a 12h light/12h dark schedule and were fed autoclaved chow and water ad libitum.
PC-3 cells were harvested from subconfluent cultures after a brief exposure to 0.25% trypsin and 0.2% EDTA. Trypsinization was stopped by adding medium containing 10% FBS. The cells were washed once in serum-free medium and resuspended in PBS. Only suspensions consisting of single cells with >90% viability were used for the injections. PC-3 cells (1 × 10^7) in 100 μL PBS suspended in Matrigel (0.1 mg, Collaborative Biomedical Products Becton Dickinson Labware, Bedford, MA) were injected subcutaneously into the interscapular area using a 27-gauge needle.
On day 21, after PC-3 cell implantation, mice bearing tumors […] were randomized into the following four treatment groups (n = 10): saline controls, MTX treatment, [Dlys^6]-LHRH-MTX treatment and MTX plus [Dlys^6]-LHRH treatment. Treatments were made in 100 μL PBS and were given intravenously by tail vein injection twice weekly for 4 weeks. The vehicle-treated group received an equivalent amount of PBS. Tumor volumes were measured with calipers and the body weights of the mice were measured twice a week. Tumor volumes were calculated with the following formula: V(mm^3) = length × width^2/2, where width represents the shortest measurement in millimeters. The animals were euthanized 7 days after the last treatment. Body weights, tumor weights and organ weights were recorded.

PC-3 cells [2] = experiment: MTT cytotoxicity assay, PC-3 cells; assay type: cell-based; conditions: Homo sapiens, 24 h treatment, means ± SD, n = 3
DU145 cells = experiment: MTT cytotoxicity assay, DU145 cells; assay type: cell-based; conditions: Homo sapiens, DU-145, 24 h treatment, means ± SD, n = 3
Procedure: as §1, §2, §3

PC-3 cells [3] = experiment: Apoptosis analysis, Annexin V-FITC/PI staining, flow cytometry; assay type: cell-based, human; conditions: 24 h; for late apoptotic/early necrotic (AV+/PI+) cells: quadrant B2; for early apoptotic (AV+/PI−) populations: quadrant B4
Procedure: To quantitatively investigate apoptotic and early necrotic events in these treated cultures, the fluorescent probe Annexin V-FITC and PI were used, The presence of a apoptotic and early necrotic cells was then determined and quantified by flow cytometry analysis which clearly differentiated normal cells with low Annexin V-FITC and low PI staining, apoptotic cells with high Annexin V-FITC and low PI staining, necrotic cells with high Annexin V-FITC and high PI staining and cell debris with low Annexin VFITC and high PI staining.
Figure 4 Quantitative apoptotic measurement in PC-3 cells after treatment with [DLys^6]-LHRH-MTX and MTX, the concentration-dependent effects on apoptosis following treatment with MTX and [DLys^6]-LHRH-MTX for 24 at doses of 0.98 μmol/L and 3.91 μmol/L were determined by flow cytometry analysis. Results were expressed as a dot plot of Annexin V -FITC vs. PI. […]
To quantitatively evaluate the induction of apoptosis by flow cytometry, Annexin-V-FITC/PI staining was performed. Briefly, PC-3 cells were seeded in a 6-well culture plate at a density of 2 × 10^5 cells per well, and treated with various concentrations of MTX or [Dlys^6]-LHRH or [Dlys^6]-LHRH-MTX for 24 h. The cells were harvested and then stained with Annexin V-FITC/PI solution (1:1, v/v, […]) in the dark for 15 min at room temperature. After washing with PBS, the cell suspensions in buffer were gently vortexed, and analyzed within 1 h by flow cytometry (Beckton Dickinson, CA, […]).

[4] = test system: normal human prostate fibroblast (HPrF) cells
Procedure: as §4, §5, §6, §7

[5] = test system: prostate cancer cell lines (PC-3, DU145 and LNCaP); experiment: MTT cytotoxicity assay, prostate cancer cell lines as a group; assay type: cell-based, human; conditions: 24 h
Procedure: as §1, §2, §3

| Compound | IC50 [1] | IC50 (LNCaP cells) | effect on tumor volume (PC-3 tumor xenografts; PC-3 xenografts) | Inhibition ratio of tumor weight (PC-3 tumor xenografts) | Inhibition ratio of tumor volume (PC-3 tumor xenografts) | Mean tumor volume, Initial (PC-3 tumor xenografts) | Mean tumor weight (PC-3 tumor xenografts) | Mean tumor volume, Final (PC-3 tumor xenografts) | Tumor volume doubling time (PC-3 tumor xenografts) | IC50 (PC-3 cells [2]) | IC50 (DU145 cells) | late apoptotic/early necrotic (AV+/PI+) cells (PC-3 cells [3]; PC-3, 0.98 μmol/L) | early apoptotic (AV+/PI−) populations (PC-3 cells [3]; PC-3, 0.98 μmol/L) | late apoptotic/early necrotic (AV+/PI+) cells (PC-3 cells [3]; PC-3, 3.91 μmol/L) | early apoptotic (AV+/PI−) populations (PC-3 cells [3]; PC-3, 3.91 μmol/L) | histology of tumor sections, hematoxylin/eosin (PC-3 tumor xenografts; PC-3 xenografts, Fig. 7) | tumor burden (PC-3 tumor xenografts; day 30, n = 10, Fig. 6) | cytotoxicity against HPrF cells [4] | cytotoxicity against prostate cancer cell lines [5] |
| --- | --- | --- | --- | --- | --- | --- | --- | --- | --- | --- | --- | --- | --- | --- | --- | --- | --- | --- | --- |
| CN(Cc1cnc2nc(N)nc(N)c2n1)c1ccc(C(=O)N[C@@H](CCC(=O)O)C(=O)O)cc1 [MTX, Methotrexate] | 42.3 ± 7.25 µM | 9.68 ± 1.24 µM | significant anti-tumor effects | 59.90% | 61.88% | 63.38 ± 7.38 mm3 | 0.82 ± 0.12 ^a g | 700.39 ± 36.48 ^a mm3 | 8.88 days | 6.34 ± 1.01 µM | 8.03 ± 1.29 µM | 8.35% | 15.38% | 9.52% | 30.88% |  |  |  |  |
| [DLys^6]-LHRH |  |  | did not affect the tumor volume | 4.41% | 2.88% | 62.49 ± 13.70 mm3 | 1.95 ± 0.34 g | 1784.58 ± 95.99 mm3 | 6.13 days |  |  |  |  |  |  | predominantly viable cells | unchanged | no cytotoxicity | no cytotoxicity |
